Measured values taken from PubChem BioAssay (NCI).
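Method: 48-hour compound exposure of cells in 96-well plates, five concentrations, linear interpolation of endpoints. Here, GI50 denotes the concentration required for 50% inhibition of growth. Definition used: TGI = concentration required for complete inhibition of growth.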

What was measured:
Experiment in all cases: NCI anticancer screen, dose series, 48 h
SNB-78 CNS = test system: SNB-78 CNS
M14 melanoma = test system: M14 melanoma
UO-31 renal = test system: UO-31 renal
NCI-H460 lung = test system: NCI-H460 lung
SF-539 CNS = test system: SF-539 CNS
SW-620 colon = test system: SW-620 colon
A549 NSCLC = test system: A549 NSCLC
SK-OV-3 ovarian = test system: SK-OV-3 ovarian
SF-295 CNS = test system: SF-295 CNS
SR leukemia = test system: SR leukemia
M19-MEL melanoma = test system: M19-MEL melanoma
KM20L2 colon = test system: KM20L2 colon
U251 CNS = test system: U251 CNS
SN12C renal = test system: SN12C renal
SK-MEL-5 melanoma = test system: SK-MEL-5 melanoma
SK-MEL-2 melanoma = test system: SK-MEL-2 melanoma
NCI-H522 lung = test system: NCI-H522 lung
K-562 leukemia = test system: K-562 leukemia
SNB-75 CNS = test system: SNB-75 CNS
RXF 393 renal = test system: RXF 393 renal
NCI-H23 lung = test system: NCI-H23 lung
HOP-92 NSCLC = test system: HOP-92 NSCLC
CCRF-CEM leukemia = test system: CCRF-CEM leukemia
786-0 renal = test system: 786-0 renal
SF-268 CNS = test system: SF-268 CNS
OVCAR-3 ovarian = test system: OVCAR-3 ovarian
HCC-2998 colon = test system: HCC-2998 colon
OVCAR-4 ovarian = test system: OVCAR-4 ovarian
ACHN renal = test system: ACHN renal
IGROV1 ovarian = test system: IGROV1 ovarian
OVCAR-8 ovarian = test system: OVCAR-8 ovarian
HOP-62 NSCLC = test system: HOP-62 NSCLC
EKVX NSCLC = test system: EKVX NSCLC
TK-10 renal = test system: TK-10 renal
MOLT-4 leukemia = test system: MOLT-4 leukemia
HCT-116 colon = test system: HCT-116 colon
HL-60(TB) leukemia = test system: HL-60(TB) leukemia
MALME-3M melanoma = test system: MALME-3M melanoma
KM12 colon = test system: KM12 colon
LXFL 529 NSCLC = test system: LXFL 529 NSCLC
HT29 colon = test system: HT29 colon
LOX IMVI melanoma = test system: LOX IMVI melanoma
HCT-15 colon = test system: HCT-15 colon
UACC-62 melanoma = test system: UACC-62 melanoma
UACC-257 melanoma = test system: UACC-257 melanoma
SK-MEL-28 melanoma = test system: SK-MEL-28 melanoma
OVCAR-5 ovarian = test system: OVCAR-5 ovarian

N=C1C(=N)c2ccccc2-c2ccccc21.[Cl-].[Ru+2].c1cnc2c(c1)ccc1cccnc12.c1cnc2c(c1)ccc1cccnc12
GI50 (SNB-78 CNS): 39.2 µM | TGI (SNB-78 CNS): > 100 µM | TGI (M14 melanoma): 43.3 µM | TGI (UO-31 renal): > 100 µM | TGI (NCI-H460 lung): > 100 µM | TGI (SF-539 CNS): 57.8 µM | TGI (SW-620 colon): 41.4 µM | TGI (A549 NSCLC): > 100 µM | TGI (SK-OV-3 ovarian): > 100 µM | TGI (SF-295 CNS): > 100 µM | TGI (SR leukemia): > 100 µM | GI50 (M19-MEL melanoma): 24.6 µM | TGI (M19-MEL melanoma): > 100 µM | GI50 (KM20L2 colon): 34.5 µM | TGI (KM20L2 colon): 92.5 µM | TGI (U251 CNS): 73.9 µM | TGI (SN12C renal): > 100 µM | TGI (SK-MEL-5 melanoma): 34.4 µM | TGI (SK-MEL-2 melanoma): 91.4 µM | TGI (NCI-H522 lung): 54.7 µM | TGI (K-562 leukemia): 78.9 µM | TGI (SNB-75 CNS): > 100 µM | TGI (RXF 393 renal): > 100 µM | TGI (NCI-H23 lung): > 100 µM | TGI (HOP-92 NSCLC): 67.9 µM | TGI (CCRF-CEM leukemia): 74.7 µM | TGI (786-0 renal): > 100 µM | TGI (SF-268 CNS): > 100 µM | TGI (OVCAR-3 ovarian): 68.6 µM | TGI (HCC-2998 colon): > 100 µM | TGI (OVCAR-4 ovarian): 77.7 µM | TGI (ACHN renal): 76.6 µM | TGI (IGROV1 ovarian): 72.6 µM | TGI (OVCAR-8 ovarian): 95.6 µM | TGI (HOP-62 NSCLC): > 100 µM | TGI (EKVX NSCLC): 93.5 µM | TGI (TK-10 renal): > 100 µM | TGI (MOLT-4 leukemia): 96.9 µM | TGI (HCT-116 colon): 88.8 µM | TGI (HL-60(TB) leukemia): 54 µM | TGI (MALME-3M melanoma): 73.6 µM | TGI (KM12 colon): > 100 µM | GI50 (LXFL 529 NSCLC): 18.9 µM | TGI (LXFL 529 NSCLC): 55.7 µM | TGI (HT29 colon): > 100 µM | TGI (LOX IMVI melanoma): 75.1 µM | TGI (HCT-15 colon): > 100 µM | TGI (UACC-62 melanoma): > 100 µM | TGI (UACC-257 melanoma): 46.6 µM | TGI (SK-MEL-28 melanoma): 60.7 µM | TGI (OVCAR-5 ovarian): > 100 µM
